The source of these data is a melting point compilation (Tetko et al.; mined from patent text by program, amines drawn as free bases though some values may be those of a salt).

As usually defined, the melting point is the temperature, or range, at which the solid turns liquid.

Residues, ends and D or L forms follow the SMILES beside them. *: point of attachment. Tos = Cc1ccc(S(=O)(=O)*)cc1

`O=C1Nc2ccccc2Sc2c1csc2Cl` yielded a melting point of 287 to 288 °C.

With `O=C(C=Cc1ccc(-c2ccc(Cl)cc2)cc1)NC(Cc1ccc(OCc2ccccc2)cc1)C(=O)O` (centres undefined), the melting point lay in the range of 253 to 254 °C.

In the case of `CC(C)c1cccc(C(C)C)c1NC(=O)NCC(c1ccccc1)c1ccccc1`, the melting point fell in the range of 175 to 176 °C.

On to `NC(=O)c1cccc(-c2nc(-c3ccccc3)c(-c3nc4ccccc4c(=O)n3-c3ccccc3Cl)s2)c1`, for which the melting point lay within 212 to 214 °C.

The compound `O=C(OCc1ccc(OCCCc2ccc(Cl)cc2)cc1)c1cccnc1` yielded a melting point of 67 to 68 °C.

`CCN(CC)C(=O)c1nc(/C=C/c2ccc([N+](=O)[O-])o2)no1` yielded a melting point of 118 to 119 °C.

`CC(=O)NC(C)=NC(=Nc1ccccc1)N1CCOCC1` came in with a melting point of 146 to 149 °C.

Turning to `N#Cc1cc(-c2nccs2)[nH]c1C(CC1CCOCC1)c1ccc(S(=O)(=O)C2CC2)cc1` (centres undefined), the melting point was in the range of 114 to 116 °C.

On to `Cc1nccn1-c1nc(-c2ccc(Cl)cc2)c(CCCC2=NCCO2)o1`, for which the melting point fell in the range of 88 to 89 °C.

`COc1cc(C)c(C=CC(C)=CC=CC(=O)O)c(C)c1C`: the melting point was 189 to 191 °C.

In turn, `O=c1[nH]c(=O)n(CCCCBr)c2ccc(Cl)cc12` came in with a melting point of 154 to 156 °C.

With `CC(C)(C)C(=O)ON=C(N)CN1C(=O)C2(COc3cc4c(cc32)OCO4)c2ccccc21` (centres undefined), the melting point was 183 to 185 °C.

Turning to `NC(=O)c1sc2nccc(OC3CCCCCC3)c2c1N`, the melting point lay in the range of 179 to 180 °C.

`COC(=O)c1ccc2c(C(C(=O)NS(=O)(=O)c3ccc(C)cc3OC)c3ccc4c(c3)OCO4)cn(C)c2c1` (centres undefined) displayed a melting point of 184 to 185 °C.

With `CNc1nccc(-c2cc(NCCCNCCCOC)c3cc(OC)ccc3c2)n1`, the melting point is 130 to 132 °C.

As for `COc1cc(C=O)cc(OC)c1OC1OC(CO)C(O)C(O)C1NC(C)=O` (centres undefined), the melting point is 186 to 189 °C.

For `Cc1nn(-c2ccc(C#N)c(Cl)c2)c(C)c1Oc1ccc(C(=O)N2CCOCC2)cc1`, the melting point lay in the range of 156 to 157 °C.

As to `Cc1ccccc1-c1c(C2CCN(C)CC2)[nH]c(=O)c2ccccc12`, the melting point was 249 to 251 °C.

For the compound `CC(C)Cn1nc(-c2ccc(F)c(F)c2)cc(C(=O)O)c1=O`, the melting point was in the range of 163 to 164 °C.

`CC(C)(C)NC(=O)NC(C)(C)C` showed a melting point of 246 °C.

`COc1ccc(CCc2nc(C(N)=O)c[nH]2)cc1` displayed a melting point of 218 to 219 °C.

`COc1cc2c(cc1O)C(C)(C)CC2` had a melting point of 43.5 to 44.5 °C.

Regarding `C=C1SC(=O)N(c2ccc3cc(-c4ccc(OC)c(C5(C)CCCCC5)c4)ccc3c2)C1=O`, the melting point fell in the range of 268 to 271 °C.

`COc1ccc(-c2cc(CO)c(=O)n(Cc3ccc(Cl)cc3)n2)cc1F` yielded a melting point of 165 °C.

On to `Cc1nnc2n1-c1sc(Cl)cc1C(c1ccccc1[N+](=O)[O-])=NC2`, for which the melting point lay within 210 to 212 °C.

As for `Cc1cc2c(s1)S(=O)CCc1cc(=O)n(-c3ccc(Cl)cc3)nc1-2` (centres undefined), the melting point was in the range of 174 to 175 °C.

`C[Si](C)(C)c1cccc(Br)c1C(=O)O`: the melting point lay in the range of 139 to 141 °C.

The compound `CC(NO)c1ccc2c(c1)Sc1cc(Cl)ccc1O2` (centres undefined) gave a melting point of 103 to 105 °C.

`COC(=O)Cc1nc(-c2ccccc2)c(-c2ccccc2)s1` displayed a melting point of 65 to 67 °C.

As to `COC(=O)c1ccc(-c2nc(-c3ccc(C)cc3)cs2)cc1`, the melting point lay in the range of 185 to 187 °C.

`COc1cc2ncc(F)c(Cl)c2cc1OC` showed a melting point of 159 to 160 °C.

Consider `COc1ccc(NS(=O)(=O)c2cc3cc(Cl)ccc3oc2=O)cc1`, for which the melting point was 175 to 177 °C.

For `COC(=O)C1=C(C)NC(CC(=O)N2CCN(C3CCCC3)CC2)=C(C(=O)OC)C1c1c(Cl)cccc1Cl` (centres undefined), the melting point is 185 to 195 °C.

`O=C1NCC(CO)C1(c1ccccc1)c1ccccc1` (centres undefined) registered a melting point of 145 to 148 °C.

In turn, `CC1(C)C=C(c2ccc(C(=O)N3Cc4cccn4Cc4ccccc43)cc2)CC(C)(C)C1` showed a melting point of 142 to 143 °C.

In turn, `CC1CC(=O)NN=C1c1ccc(N)c([N+](=O)[O-])c1` (centres undefined) yielded a melting point of 234 to 238 °C.

For `Cc1nc(N)nc(N)c1-c1cc(I)ccc1Cl`, the melting point fell in the range of 232 to 234 °C.

In the case of `COc1ccc(CC(=O)NC(NC(Cc2ccccc2C)=NC#N)C(C)(C)C)cc1` (centres undefined), the melting point was 199 to 201 °C.

The compound `Cn1nc(-c2ccc([N+](=O)[O-])o2)c2c(Cl)ncnc21` registered a melting point of 195 °C.

With `NS(=O)(=O)Cc1ccc2[nH]cc(CCN3C(=O)c4ccccc4C3=O)c2c1`, the melting point lay within 186 to 188 °C.

With `O=C(O)COc1ccc(NC(=O)c2csc(NC(=O)NCc3ccccc3)n2)cc1C(=O)O`, the melting point amounted to 219 °C.

As to `CC(=O)Nc1ccc(OC/C=C(\C)C=O)cc1`, the melting point lay within 127 to 130 °C.

For the compound `Cc1c(C(=O)c2ccc(Br)c3ccccc23)c2cccc(C(F)(F)F)c2n1CCN1CCOCC1`, the melting point is 160 °C.

The compound `CCOc1cc(C(=O)N2CCc3cc(O)ccc3C2)cc(OCC)c1OCC` came in with a melting point of 158 °C.

In turn, `Oc1ccc(-c2nsnc2Cl)cc1` returned a melting point of 135 to 136 °C.

In turn, `OC[C@H](O)COc1nc(Oc2ccc(F)cc2F)nc2[nH]nc(-c3ccccc3Cl)c12` had a melting point of 179 to 181 °C.

In the case of `CCn1ncc(C(=O)c2ccc(S(C)(=O)=O)c(C)c2Cl)c1O`, the melting point is 225 to 227 °C.

Take `N#Cc1cccc(-c2ccccc2)n1`: the melting point was 65.2 to 66.1 °C.

For `c1cncc(-c2nnc(NCC3CC3)s2)c1`, the melting point lay within 162 to 165 °C.

`CNC(=O)N1CCC(c2nn(-c3ccc(F)cc3)c3ccccc23)CC1` registered a melting point of 113 to 115 °C.

Turning to `CCCCOc1cccc(Cn2[nH]c(N)cc2=O)c1`, the melting point was determined as 110 °C.

On to `Cc1ccc(S(=O)(=O)NCC(=O)N[C@@H](Cc2ccccc2)C(=O)O)cc1` (Tos-Gly-Phe-OH), for which the melting point is 157 to 161 °C.

Take `Nc1c(F)c(F)nc(F)c1Cl`: the melting point is 118 to 120 °C.

In the case of `CNc1[nH]c(-c2ccccc2)c(C)c1C#N`, the melting point was in the range of 138 to 139 °C.

In turn, `O=C1C=CC(=O)C2=C1OCO2` gave a melting point of 106 to 107 °C.

For `COC1c2ccccc2CSc2ccc(C#N)cc21` (centres undefined), the melting point lay within 117 to 118 °C.

`Cc1nc(-n2ccc(OCC3CCCO3)cc2=O)sc1C(=O)NCc1ccccc1` (centres undefined): the melting point was in the range of 181 to 183 °C.

Compound `CC(=O)NC[C@H]1CN(c2ccc(N3CCC(n4ncn(C)c4=S)CC3)c(F)c2)C(=O)O1` had a melting point of 182 to 185 °C.

For `CCC(=O)NCC1CC1c1cccc2nc(C)sc12` (centres undefined), the melting point lay within 59 to 61 °C.

In the case of `O=C(O)c1ccc(C(F)(F)F)c([N+](=O)[O-])c1`, the melting point lay within 156 to 158 °C.

Regarding `CCOC(=O)C1=C(C)Nc2nc[nH]c(=O)c2C1c1ccccc1` (centres undefined), the melting point fell in the range of 303 to 305 °C.

`O=[N+]([O-])c1cc([N+](=O)[O-])c(Nc2nc(-c3ccc(Cl)cc3Cl)cs2)c(C(F)(F)F)c1` had a melting point of 125 to 130 °C.

On to `CCC(C(=O)C(C)C(O)C(C)CCCC(=O)c1c(NC(C)=O)cc(C)c(O)c1C(=O)O)C1OC(CC)(C2CCC(O)(CC)C(C)O2)CC1C` (centres undefined), for which the melting point lay in the range of 190 to 192 °C.

In the case of `CSc1ccc(-c2nc(O)c(C(=O)Nc3ccc(C)cc3)c(SC)n2)cc1`, the melting point was in the range of 302 to 305 °C.

The compound `COc1cc(OC)nc(C(C(=O)NS(C)(=O)=O)C(C)C)n1` (centres undefined) gave a melting point of 99 to 102 °C.

Take `CS(=O)(=O)C1CC(=O)N1CC(=O)OCc1ccccc1` (single isomer, unassigned; (+)): the melting point was in the range of 102 to 103 °C.

On to `COCCNC(=O)Cc1c(-c2ccc(C)cc2)nc2[nH]c3ccccc3n12`, for which the melting point was in the range of 189 to 190 °C.

Take `O=C1N(c2cc(Cl)cc(Cl)c2)C(=O)C2(Cc3ccc(-c4cccnc4)cc3)CCCCN12` (centres undefined): the melting point came out at 276 °C.

Regarding `COCC(=O)c1ccc(Br)nc1`, the melting point was in the range of 110 to 112 °C.

The compound `CCCCCCCCCNC(=O)NCC(=O)O` had a melting point of 144 to 145 °C.

On to `COc1ccc(/C(=C/C=C/C(=O)Oc2ccc([N+](=O)[O-])cc2)C2CCCCC2)cc1`, for which the melting point lay in the range of 117 to 119 °C.

With `CCCCc1nc(SC)c(C(=O)OCC)n1Cc1ccc(-c2ccc(S(=O)(=O)NC#N)cc2C)cc1`, the melting point turned out to be 211 °C.

The compound `CC12CC3(C)CC(c4ccc(O)cc4)(C1)CC(c1ccc(O)cc1)(C2)C3` came in with a melting point of 222 to 224 °C.

In the case of `O=C(CCCN1CCC(Cc2ccccc2)CC1)c1ccc2c(c1)Cc1cc(C(=O)CCCN3CCC(Cc4ccccc4)CC3)ccc1-2`, the melting point lay within 135 to 137 °C.

Consider `CCCCOC(=O)[C@H]1CN(c2ccc(N3CCSCC3)c(F)c2)C(=O)O1`, for which the melting point was in the range of 128 to 130 °C.

The compound `CCCCC(CCCc1cccnc1)CC(NS(=O)(=O)c1ccc(Cl)cc1)C(=O)O` (centres undefined) had a melting point of 113 to 114 °C.

As for `CCc1ncnc(O)c1F`, the melting point lay in the range of 112 to 114 °C.

`Cn1cc(-c2cc3cccnc3[nH]2)c2ccc(C(=O)NCCC(N)=O)cc21` registered a melting point of 277 to 280 °C.

In turn, `O=S(=O)(O)NCCC(F)(F)F` displayed a melting point of over 250 °C.

`CC(C)n1nc(-c2sc(NC(=O)c3ccc(CNCCO)cc3)nc2-c2ccccc2)ccc1=O` displayed a melting point of 111 to 113 °C.

`CC(C)CCNC(=O)c1ccccc1-c1ccccc1CN1C(=O)c2ccccc2C1=O` had a melting point of 169 °C.

In the case of `Cc1ccc(S(=O)(=O)NCCCCOc2ccc(-c3nnn[nH]3)cc2)cc1`, the melting point was 180 to 182 °C.

In turn, `c1ccc(C2(Oc3cnccn3)CCNCC2)cc1` came in with a melting point of 107 to 108 °C.

As for `Nc1sc2c(c1C(=O)c1ccc3ccccc3c1)CCCC2`, the melting point fell in the range of 95 to 97 °C.

In turn, `Nc1cc(Oc2ccc3c(C(=O)Nc4cccc(C(F)(F)F)c4)cccc3c2)ncn1` had a melting point of 243 to 244 °C.

Compound `COC(=O)C1=C(C)NC(C)=C(c2ccccc2)C1c1cccc(Cl)c1` (centres undefined) registered a melting point of 191 °C.

Compound `C=CCN1C(=O)C2=C(c3ccccc3)N(CC=C)C(=O)C2=C1c1ccccc1` returned a melting point of 216 to 217 °C.

Compound `O=C1C[C@@H](O)C[C@H](CCc2c(Cl)cc(Cl)c3ccc(Cl)cc23)O1` (relative stereo) came in with a melting point of 111 to 115 °C.

Take `CCOc1ccccc1OC(Cc1ccccc1)C1=NCCN1` (centres undefined): the melting point fell in the range of 95 to 97 °C.
